Results taken from patent US20190365745A1, “USE OF CHRONIC TREATMENT WITH ATR INHIBITORS TO SENSITIZE CANCER CELLS TO PARP INHIBITORS” (Cornell University, priority 2018, published 2019).
Entries after “also recorded” stand apart in the source; their conditions may differ.

Legend:
U2OS cells [1] = assay: DNA damage in cells undergoing chronic ATR inhibition alone; type: cell-based, Human
U2OS cells [2] = assay: SILAC/MS proteomic analysis of nuclear proteins (protein abundance); type: cell-based, Human; settings: U2OS nuclear proteome; 5 μM ATRi, 8 days vs untreated
Description: FIG. 5A is a schematic diagram of the SILAC/MS experiment. FIG. 5B is a quadrant diagram of the SILAC/MS experiment. Each dot represents a different identified protein. Proteins with abundance reduced two-fold or more after ATRi treatment are shown in the upper-left corner (white quadrant). FIG. 5C is a WB analysis of U2OS cells after 8 days of chronic treatment with 5 μM of ATRi or ATMi. FIG. 5D is a time course WB analysis of U2OS cells during chronic treatment with 5 μM ATRi. FIG. 5E is a WB analysis of U2OS cells at distinct cell cycle stages. Cells were treated with 1 mM hydroxyurea (HU) or 50 ng/ml nocodazole (Noc) for 24 hours. HU treated cells were released for 2.5 hours in HU-free media. FIG. 5F is a WB analysis of U2OS cells untreated or treated for 8 days with 5 μM ATRi.
For quantitative proteomic analysis, U2OS cells chronically treated with DMSO or ATR inhibitor were cultured, respectively, in “light” or “heavy” SILAC DMEM media (ThermoFisher Scientific 88425) supplemented with 10% dialyzed FBS and penicillin/streptomycin. “Light” SILAC media was supplemented with “light” (normal) arginine ^12C6, […], while “heavy” SILAC media contained “heavy” lysine ^13C6, ^15N2 and “heavy” arginine ^13C6, ^15N4. […] HILIC fractions were dried and reconstituted in 0.1% trifluoroacetic acid and analyzed using a Q-Exactive Orbitrap and Lumos mass spectrometer. […]

ATR = target: T1, ATR (Homo sapiens, UniProt Q13535); assay: Western blot of phospho-CHK1(S345) in HU-treated cells; type: cell-based; settings: 5 μM ATRi; HU-treated U2OS cells
T1 construct: endogenous in cells; host or cells: U2OS (human osteosarcoma)
T1 sequence (Q13535 whole entry): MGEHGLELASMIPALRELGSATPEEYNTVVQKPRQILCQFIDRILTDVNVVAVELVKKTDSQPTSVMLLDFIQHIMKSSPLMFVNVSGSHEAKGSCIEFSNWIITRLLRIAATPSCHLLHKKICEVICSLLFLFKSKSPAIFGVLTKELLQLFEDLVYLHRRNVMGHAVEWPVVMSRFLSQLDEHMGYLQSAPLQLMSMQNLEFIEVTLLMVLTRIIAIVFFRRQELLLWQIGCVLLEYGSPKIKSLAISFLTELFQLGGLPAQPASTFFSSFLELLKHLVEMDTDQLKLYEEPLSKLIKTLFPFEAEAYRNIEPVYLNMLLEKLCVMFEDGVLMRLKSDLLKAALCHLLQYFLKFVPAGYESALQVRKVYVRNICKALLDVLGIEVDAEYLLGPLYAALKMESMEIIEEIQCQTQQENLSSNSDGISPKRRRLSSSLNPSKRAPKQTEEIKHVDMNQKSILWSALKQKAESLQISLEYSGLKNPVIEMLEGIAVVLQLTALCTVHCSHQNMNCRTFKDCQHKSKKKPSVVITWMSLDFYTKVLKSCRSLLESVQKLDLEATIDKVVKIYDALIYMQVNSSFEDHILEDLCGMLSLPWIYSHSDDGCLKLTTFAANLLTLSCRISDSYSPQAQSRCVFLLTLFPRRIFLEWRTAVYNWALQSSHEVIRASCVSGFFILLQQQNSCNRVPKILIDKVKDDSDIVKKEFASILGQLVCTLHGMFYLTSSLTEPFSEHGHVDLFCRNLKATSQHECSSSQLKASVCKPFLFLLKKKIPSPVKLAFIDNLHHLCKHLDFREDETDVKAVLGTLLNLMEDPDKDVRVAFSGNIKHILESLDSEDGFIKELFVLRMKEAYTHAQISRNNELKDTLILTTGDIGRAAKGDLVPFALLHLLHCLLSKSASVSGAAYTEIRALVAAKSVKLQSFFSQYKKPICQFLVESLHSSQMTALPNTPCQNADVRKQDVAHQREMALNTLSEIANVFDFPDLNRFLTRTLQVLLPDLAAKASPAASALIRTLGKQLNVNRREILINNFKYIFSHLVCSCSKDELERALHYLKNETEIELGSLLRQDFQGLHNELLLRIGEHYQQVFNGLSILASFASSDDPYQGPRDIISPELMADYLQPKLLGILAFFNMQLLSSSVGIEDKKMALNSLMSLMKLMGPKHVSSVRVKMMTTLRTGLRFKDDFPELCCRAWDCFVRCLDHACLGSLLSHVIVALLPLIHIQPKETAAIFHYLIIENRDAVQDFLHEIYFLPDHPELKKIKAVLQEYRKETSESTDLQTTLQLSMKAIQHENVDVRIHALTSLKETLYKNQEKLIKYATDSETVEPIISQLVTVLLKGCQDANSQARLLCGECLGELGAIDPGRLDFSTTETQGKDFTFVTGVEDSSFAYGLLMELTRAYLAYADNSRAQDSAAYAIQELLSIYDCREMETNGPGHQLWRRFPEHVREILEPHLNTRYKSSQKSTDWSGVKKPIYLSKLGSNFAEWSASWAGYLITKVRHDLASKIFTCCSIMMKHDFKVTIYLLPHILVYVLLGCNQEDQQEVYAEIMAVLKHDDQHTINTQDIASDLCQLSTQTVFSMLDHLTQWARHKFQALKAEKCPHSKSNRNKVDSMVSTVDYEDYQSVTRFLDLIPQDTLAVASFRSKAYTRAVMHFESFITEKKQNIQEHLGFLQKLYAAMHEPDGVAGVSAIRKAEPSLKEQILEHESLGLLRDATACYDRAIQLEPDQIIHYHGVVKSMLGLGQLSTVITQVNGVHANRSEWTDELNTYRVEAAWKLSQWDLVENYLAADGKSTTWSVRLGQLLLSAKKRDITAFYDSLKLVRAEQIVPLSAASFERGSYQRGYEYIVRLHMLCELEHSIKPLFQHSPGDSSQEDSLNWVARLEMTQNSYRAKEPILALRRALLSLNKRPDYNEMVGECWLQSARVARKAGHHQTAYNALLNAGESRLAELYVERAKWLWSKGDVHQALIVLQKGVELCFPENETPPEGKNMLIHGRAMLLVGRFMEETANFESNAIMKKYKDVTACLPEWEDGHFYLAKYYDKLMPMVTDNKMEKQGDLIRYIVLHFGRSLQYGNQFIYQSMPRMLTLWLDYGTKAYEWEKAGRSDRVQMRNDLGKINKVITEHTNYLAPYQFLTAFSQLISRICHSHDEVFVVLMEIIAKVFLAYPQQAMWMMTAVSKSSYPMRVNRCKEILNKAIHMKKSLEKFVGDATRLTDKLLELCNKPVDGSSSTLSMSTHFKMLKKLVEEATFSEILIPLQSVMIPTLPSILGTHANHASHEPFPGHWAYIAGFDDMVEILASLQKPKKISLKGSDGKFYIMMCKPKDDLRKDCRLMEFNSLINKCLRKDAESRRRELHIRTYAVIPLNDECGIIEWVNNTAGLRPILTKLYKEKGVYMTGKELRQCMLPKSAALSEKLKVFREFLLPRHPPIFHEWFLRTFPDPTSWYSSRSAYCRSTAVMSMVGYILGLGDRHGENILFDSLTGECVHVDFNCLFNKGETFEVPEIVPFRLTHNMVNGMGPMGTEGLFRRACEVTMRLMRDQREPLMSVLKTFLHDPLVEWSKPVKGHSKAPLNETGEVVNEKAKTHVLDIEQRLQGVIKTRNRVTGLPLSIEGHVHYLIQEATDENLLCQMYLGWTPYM
T1 sequence (Q8WXE1 whole entry partner): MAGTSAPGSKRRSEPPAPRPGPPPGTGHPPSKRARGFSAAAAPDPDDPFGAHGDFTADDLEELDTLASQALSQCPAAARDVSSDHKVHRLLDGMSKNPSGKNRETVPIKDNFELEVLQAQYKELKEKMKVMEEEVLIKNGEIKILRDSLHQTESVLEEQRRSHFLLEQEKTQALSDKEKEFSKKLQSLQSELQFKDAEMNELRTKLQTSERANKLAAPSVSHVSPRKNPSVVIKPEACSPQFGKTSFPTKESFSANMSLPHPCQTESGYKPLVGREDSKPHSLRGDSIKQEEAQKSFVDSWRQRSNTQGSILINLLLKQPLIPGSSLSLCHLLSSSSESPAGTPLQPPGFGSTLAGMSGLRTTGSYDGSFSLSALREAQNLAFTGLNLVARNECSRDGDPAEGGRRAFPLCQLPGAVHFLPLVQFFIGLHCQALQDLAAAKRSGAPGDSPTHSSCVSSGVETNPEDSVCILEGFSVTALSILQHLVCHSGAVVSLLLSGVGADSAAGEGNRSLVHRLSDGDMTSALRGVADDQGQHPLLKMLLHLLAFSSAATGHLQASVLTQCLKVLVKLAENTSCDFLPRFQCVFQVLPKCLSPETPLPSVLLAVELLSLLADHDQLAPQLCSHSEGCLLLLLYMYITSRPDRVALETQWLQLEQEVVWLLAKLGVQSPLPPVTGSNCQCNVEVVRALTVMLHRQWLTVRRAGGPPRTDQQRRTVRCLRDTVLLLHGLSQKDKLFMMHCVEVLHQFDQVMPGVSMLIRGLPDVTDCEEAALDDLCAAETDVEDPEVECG
Description: FIG. 3 is a Western Blot (“WB”) of U2OS cells treated with ATRi for 30 minutes prior to a 3-hour HU treatment. WB analysis was performed against phospho-CHK1(S345), CHK1 and Actin.
Cells were harvested and lysed in modified radioimmunoprecipitation assay (RIPA) buffer (50 mM Tris-HCl pH 7.5, 150 mM NaCl, 1% tergitol, 0.25% sodium deoxycholate, 5 mM EDTA) supplemented with Complete EDTA-free protease inhibitor cocktail (Roche), 1 mM PMSF, 5 mM sodium fluoride, 10 mM β-glycerol-phosphate and 0.4 mM sodium orthovanadate. Whole cell lysates were cleared with 5 minute centrifugation at 13,000 rpm at 4° C. and mixed with 3×SDS sample buffer (bromophenol blue, stacking gel buffer, 50% glycerol, 3% SDS and 60 mM DTT). After being resolved on SDS-PAGE gels, proteins were then transferred onto polyvinylidene difluoride (PVDF) membranes and detected with designated antibodies.

U2OS cells [3] = assay: Cell cycle analysis (propidium iodide, flow cytometry); type: cell-based, Human; settings: chronic 5 μM ATRi
Description: Cells were harvested by standard trypsinization and fixed with 70% ethanol. After fixation, cells from each sample were resuspended in PBS, permeabilized using 0.1% Triton X-100 and treated with RNase A (0.8 mg/ml). Then cells were stained with propidium iodide and analyzed by flow cytometry using FACSAria Fusion (BD) or Accuri C6 cytometer (BD) to determine the fraction of cells in different stages of the cell cycle.

U2OS cancer cells = assay: Crystal violet staining survival assay; type: cell-based, Human; settings: after 8 days of treatment, 2 or 8 days drug-free
Description: First, cells were treated for 5 days with either DMSO or 5 μM ATR inhibitor. Next, 1×10^5 cells of each cell type were plated onto a 10 cm dish and further treated with DMSO, ATR inhibitor and/or PARP inhibitor for additional 3 days. Cells were either fixed or allowed to recover after additional 2 or 8 days in drug-free media.
First, hTERT RPE-1, U2OS, HCT116, HeLa, A2780, or U87 cells were treated for 5 days with either DMSO or 5 μM ATR inhibitor. Next, 1×10^5 cells of each cell type were plated onto a 10 cm dish and further treated with DMSO, ATR inhibitor, and/or PARP inhibitor for an additional 3 days. Cells were then washed with PBS and either fixed in 100% methanol for 15 minutes at 4° C. or fixed after additional 2 or 8 days of culture in drug-free media. Fixed plates were stained with 0.1% crystal violet solution overnight followed by a distilled water wash. Pictures were taken after the plates were dried. For quantitation of cell viability, total viable cells were counted using a hematocytometer after indicated treatment.

Compound: CS(=O)(=O)c1ccc(-c2cnc(N)c(C(=O)Nc3ccccc3)n2)cc1 [ATRi, VE-821]
- DNA damage (U2OS cells [1]): not detectable
- Abundance of proteins required for HR-mediated repair, including BRCA1 and FANCJ (SILAC/MS) (U2OS cells [2]): reduced
- ATR inhibition monitored by CHK1 phosphorylation (ATR): almost complete ATR inhibition
- Cell cycle distribution (S-phase cells) (U2OS cells [3]): minor increase in the number of S-phase cells; also recorded: slight increase in S phase cells
- Recovery in drug-free media (crystal violet) (U2OS cancer cells): recovered after switching to drug-free media
